These results are taken from patent US20220305025A1, “PHOSPHATIDYLSERINE BINDING MOLECULES BLOCK IMMUNE SUPPRESSION OF TUMOR ASSOCIATED EXOSOMES” (priority 2019, published 2022).

Entries after “also recorded” stand apart in the source; their conditions may differ. Read-outs that look alike come from different tables or passages of the source.

Series [1] has as its system tumor associated exosomes / T cells. As to the kind of experiment: Reversal of exosome-mediated arrest of T cell activation (CD3/CD28-activated PBL with exosomes).
Method: PBL were either unactivated (Unt) or activated for 2 h (hours) with immobilized antibodies to CD3 and CD28 with exosomes (Exo), exosomes with Zn-T-DPA and Exoblock (Exo+Zn-T-DPA and Exo+ExoBlock) or without (No Exo) exosomes. NFκB expression was detected using confocal microscopy.
T cells from normal donor peripheral blood leukocytes (NDPBL) were activated for 2 h with immobilized antibodies to CD3 and CD28 in the presence or absence of exosomes and 10 μM ExoBlock. The percentage of activation was determined by monitoring the upregulation of CD69. Percentage of inhibition and reversal were calculated.
The conditions of series [2]: mouse, in vivo, 64 mg/kg.
From the text: (§1) Mice were euthanized 14 days after treatment with the drugs.
Series [3] relates to apoptotic cells (Jurkat cells). To be noted: Jurkat cells treated with 10 μM Etoposide for 20 h; equimolar or titrating amounts.
Method: Jurkat cells were treated with 10 μM Etoposide for 20 h to induce apoptosis. The cells were then stained with PSVue with equimolar or titrating molar amounts of ExoBlock. Sytox Red was used to eliminate dead cells from the analysis. The experiment was done in triplicate wells.
Series [4] in a line: Systemic organ toxicity study in mice. To be noted: dose 64 mg/kg.
From the text: as §1
The subject of the next series is DM6-Mut cells. Description: Direct effect on tumor target cells in vitro. In kind it is cell-based, human. To be noted: at the doses used.
The test system of the next series is DM6-Mut tumor xenografts. To be noted: for tumor escape / tumor growth: NSG mice bearing DM6-Mut xenografts treated with TKT cells, ExoBlock 64 mg/kg i.p., nivolumab 10 mg/kg. An excerpt:
(A) Experimental scheme and timeline (B-C) Tumor burdens on respective days in the X-mouse model in anti-PD-1 experiment (B) or the IL-12 experiment (C).
The X mouse model was established to allow for the rapid generation of human tumors and an in vivo method of evaluation of the anti-tumor responses of patient-derived T cells to patient tumor-specific peptides expressed by the established tumors.
There are 7 different T cells derived for 3 different patients available for our studies (Table 1). […] The melanoma tumor target cells (DM6) are either transduced with a tandem mini-gene expressing GFP or with luciferase and each are genetically modified to express either the mutated peptide (DM6-Mut), tumor target or the wild type peptide (DM6-WT) control target. Tumor growth in the X mouse model is monitored either by post-mortem quantification of GFP fluorescence in the omentum or by quantification of luciferase-dependent bioluminescence of the mice by live imaging.
The X-mouse model was used to test the efficacy of ExoBlock. ExoBlock was injected i.p. into NSG mice bearing DM6-Mut tumor xenografts and treated with TKT cells.

Regarding (ZnDPA)6-DP-15K [ExoBlock], the “batch consistency of reversal of immunosuppressive effect of exosomes” value in series [1] (10 μM ExoBlock, CD69 upregulation, NDPBL T cells) is listed as “consistent in their ability to reverse immunosuppressive effect of exosomes”. Besides, the “blocking exosomal immune suppression in vitro” value in series [1] (PBL activated 2 h with immobilized antibodies to CD3 and CD28 with exosomes) was “more effective than both anti-PS antibody and annexin V; also recorded: inhibits exosome-mediated arrest of T cell activation”. For the same substance, the “reversal of the exosome-mediated arrest of T cell function” value in series [1] (comparative studies, FIG. 2A-C) is given as 75-96%. Moreover, in the series “PS binding avidity”, the “avidity of PS binding” value was “bind PS with a high avidity; also recorded: greater avidity to PS as compared to Zn-T-DPA”. The histopathology of organs entry in series [2] was “No pathology was observed”. Besides, the “competitive inhibition of PSVue 499 binding” value in series [3] is “competitively inhibits binding of PSVue 499 to apoptotic cells in a dose-dependent manner”. For the same substance, the “systemic organ toxicity (NOAEL)” value in series [4] is recorded as “NOAEL was observed”. Also, the “direct killing / suppression of tumor target cells” value in the series with DM6-Mut cells is “does not directly kill the tumor target cells; also recorded: no direct suppressive effect”. Further, the “tumor escape / tumor growth” value in the series on DM6-Mut tumor xenografts was “significantly delayed tumor escape; also recorded: suppresses tumor growth and has comparable efficacy to anti-PD1 treatment”. Besides, the “change in tumor burden” value in the series with DM6-Mut tumor xenografts (day 25, 64 mg/kg i.p.) is “two-fold change in tumor burden”. In the series with DM6-Mut tumor xenografts (mouse model), the “interference with anti-tumor responses of tumor-specific T cells” value is reported as “does not interfere with the anti-tumor responses of the tumor-specific T cells” and the “toxicities in pre-clinical efficacy studies” value is given as “no detectable toxicities”.
On to nivolumab [reference compound], for which the “tumor escape / tumor growth” value was “enhanced the tumor suppression and delayed, but did not prevent tumor recurrence” in the series on DM6-Mut tumor xenografts; “delay tumor escape” with DM6-Mut tumor xenografts (listed as anti-PD-1).
